# Key:
# Assay in all cases: MIC, broth microdilution (CLSI), substance alone or ATB combined with compound at 4 or 8 μg/mL
# SPN 49619 = assay type: cell-based, S. pneumoniae; conditions: SPN 49619
# Method in brief: (§1)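 Each strain received 5·10^5 CFU/mL of log-phase cells in ca-MHB over DMSO-spotted compound or compound-antibiotic combinations. After 16-20 h at 35° C, growth was scored visually.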
# ABA 19606 = assay type: cell-based, A. baumannii; conditions: Acinetobacter baumannii, substance alone, read-out: MIC
# Method in brief: as §1
# ABA UFR159 = assay type: cell-based, A. baumannii; conditions: Acinetobacter baumannii, substance alone, read-out: MIC
# Method in brief: as §1
# PAE UFR90 = assay type: cell-based, P. aeruginosa; conditions: PAE UFR90; for MIC ATB combined with Example: Example @8 μg/ml; for MIC ATB combined with Example compound: compound @8 μg/ml
# Method in brief: as §1
# PAE 105250 = assay type: cell-based, P. aeruginosa; conditions: PAE 105250; for MIC ATB combined with Example: Example @8 μg/ml; for MIC ATB combined with Example compound: compound @8 μg/ml
# Method in brief: as §1
# PAE UFR48 = assay type: cell-based, P. aeruginosa; conditions: PAE UFR48; for MIC ATB combined with Example: Example @8 μg/ml; for MIC ATB combined with Example compound: compound @8 μg/ml
# Method in brief: as §1
# ECL P99 = assay type: cell-based, E. cloacae; conditions: ECL P99; for MIC ATB combined with Example: Example @8 μg/ml
# Method in brief: as §1
# ECO UFR39 = assay type: cell-based, E. coli; conditions: ECO UFR39; for MIC ATB combined with Example: Example @8 μg/ml; for MIC ATB combined with Example compound: compound @8 μg/ml
# Method in brief: as §1
# ECO 190317 = assay type: cell-based, E. coli; conditions: ECO 190317; for MIC ATB combined with Example: Example @8 μg/ml
# Method in brief: as §1
# [1] = Pseudomonas aeruginosa, substance alone, read-out: MIC
# [2] = Escherichia coli, substance alone, read-out: MIC
structure (smiles),measurement,setting,value
"O=C1N2CC(n3cccn3)=CC(C2)N1OS(=O)(=O)[O-].[Na+] (centres unmarked) [Example 11, sodium (7-oxo-3-pyrazol-1-yl-1,6-diazabicyclo[3.2.1]oct-3-en-6-yl) sulfate]",MIC ATB combined with Example compound,"SPN 49619; MIC of VAN, compound @8 μg/ml",0.031 µg/mL
same,MIC,"SPN 49619; Streptococcus pneumoniae, substance alone, read-out: MIC",16 µg/mL
same,MIC,ABA 19606,> 32 µg/mL
same,MIC,ABA UFR159,> 32 µg/mL
same,MIC ATB combined with Example,PAE UFR90; ATB ATM,4 µg/mL
same,MIC ATB combined with Example,PAE UFR90; ATB FEP,2 µg/mL
same,MIC ATB combined with Example,PAE UFR90; ATB FOS,8 µg/mL
same,MIC ATB combined with Example,PAE UFR90; ATB MEM,1 µg/mL
same,MIC ATB combined with Example,PAE UFR90; ATB PIP,16 µg/mL
same,MIC ATB combined with Example compound,PAE UFR90; MIC of CIP,1 µg/mL
same,MIC ATB combined with Example compound,PAE UFR90; MIC of CPO,2 µg/mL
same,MIC,PAE UFR90; [1],> 32 µg/mL
same,MIC ATB combined with Example,PAE 105250; ATB ATM,16 µg/mL
same,MIC ATB combined with Example,PAE 105250; ATB FEP,8 µg/mL
same,MIC ATB combined with Example,PAE 105250; ATB FOS,>128 µg/mL
same,MIC ATB combined with Example,PAE 105250; ATB MEM,2 µg/mL
same,MIC ATB combined with Example,PAE 105250; ATB PIP,32 µg/mL
same,MIC ATB combined with Example compound,PAE 105250; MIC of CIP,0.125 µg/mL
same,MIC ATB combined with Example compound,PAE 105250; MIC of CPO,16 µg/mL
same,MIC,PAE 105250; [1],> 32 µg/mL
same,MIC ATB combined with Example,PAE UFR48; ATB ATM,8 µg/mL
same,MIC ATB combined with Example,PAE UFR48; ATB FEP,32 µg/mL
same,MIC ATB combined with Example,PAE UFR48; ATB FOS,32 µg/mL
same,MIC ATB combined with Example,PAE UFR48; ATB MEM,0.25 µg/mL
same,MIC ATB combined with Example,PAE UFR48; ATB PIP,16 µg/mL
same,MIC ATB combined with Example compound,PAE UFR48; MIC of CIP,4 µg/mL
same,MIC ATB combined with Example compound,PAE UFR48; MIC of CPO,>32 µg/mL
same,MIC,PAE UFR48; [1],> 32 µg/mL
same,MIC ATB combined with Example,ECL P99; ATB ATM,<0.031 µg/mL
same,MIC ATB combined with Example,ECL P99; ATB FEP,<0.031 µg/mL
same,MIC ATB combined with Example,ECL P99; ATB FOS,<0.125 µg/mL
same,MIC ATB combined with Example,ECL P99; ATB MEM,<0.031 µg/mL
same,MIC ATB combined with Example,ECL P99; ATB PIP,<0.031 µg/mL
same,MIC,"ECL P99; Enterobacter cloacae, substance alone, read-out: MIC",4 µg/mL
same,MIC ATB combined with Example compound,"ECL P99; MIC of CIP, compound @8 μg/ml",<0.031 µg/mL
same,MIC ATB combined with Example,ECO UFR39; ATB ATM,<0.031 µg/mL
same,MIC ATB combined with Example,ECO UFR39; ATB FEP,<0.031 µg/mL
same,MIC ATB combined with Example,ECO UFR39; ATB FOS,<0.125 µg/mL
same,MIC ATB combined with Example,ECO UFR39; ATB MEM,<0.031 µg/mL
same,MIC ATB combined with Example,ECO UFR39; ATB PIP,<0.031 µg/mL
same,MIC,ECO UFR39; [2],4 µg/mL
same,MIC ATB combined with Example compound,ECO UFR39; MIC of CIP,<0.031 µg/mL
same,MIC ATB combined with Example compound,ECO UFR39; MIC of CPO,<0.031 µg/mL
same,MIC ATB combined with Example,ECO 190317; ATB ATM,<0.031 µg/mL
same,MIC ATB combined with Example,ECO 190317; ATB FEP,<0.031 µg/mL
same,MIC ATB combined with Example,ECO 190317; ATB FOS,<0.125 µg/mL
same,MIC ATB combined with Example,ECO 190317; ATB MEM,<0.031 µg/mL
same,MIC ATB combined with Example,ECO 190317; ATB PIP,<0.031 µg/mL
same,MIC,ECO 190317; [2],1 µg/mL
same,MIC ATB combined with Example compound,"ECO 190317; MIC of CIP, compound @8 μg/ml",<0.031 µg/mL

# Source: US20200024278A1, “COMPOSITION COMPRISING ANTIBIOTIC COMPOUND AND AN HETEROCYCLIC COMPOUND AND THEIR USE IN PREVENTING OR TREATING BACTERIAL INFECTIONS” (MUTABILIS, priority 2016, published 2020)
